Results taken from the supplement of paper PMC10307832.

Tests used:
Assay in all cases: relative viability (nuclei count vs DMSO), 5 days (fraction); higher = more cells survive
Linsitinib + Pictilisib = compound: C[C@]1(O)C[C@@H](c2nc(-c3ccc4ccc(-c5ccccc5)nc4c3)c3c(N)nccn32)C1 [Linsitinib] + CS(=O)(=O)N1CCN(Cc2cc3nc(-c4cccc5[nH]ncc45)nc(N4CCOCC4)c3s2)CC1 [Pictilisib] (partner 1 µM)
Summary of the method: (§1)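 Five library-drug doses in √10 steps were combined with a fixed anchor-drug dose, or a single drug was given alone, by pin tool to lung cancer cell lines in 1536-well plates the day after seeding. Nuclei were stained and counted after 5 days. Relative viability is the nuclei count in treated wells over that in vehicle wells, taken as the median of duplicate plates.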

Ispinesib + Palbociclib = compound: Cc1ccc(C(=O)N(CCCN)[C@@H](c2nc3cc(Cl)ccc3c(=O)n2Cc2ccccc2)C(C)C)cc1 [Ispinesib] + CC(=O)c1c(C)c2cnc(Nc3ccc(N4CCNCC4)cn3)nc2n(C2CCCC2)c1=O [Palbociclib] (partner 0.5 µM)
Summary of the method: as §1

Ispinesib + Dasatinib = compound: Cc1ccc(C(=O)N(CCCN)[C@@H](c2nc3cc(Cl)ccc3c(=O)n2Cc2ccccc2)C(C)C)cc1 [Ispinesib] + Cc1nc(Nc2ncc(C(=O)Nc3c(C)cccc3Cl)s2)cc(N2CCN(CCO)CC2)n1 [Dasatinib] (partner 0.075 µM)
Summary of the method: as §1

Ispinesib + Olaparib = compound: Cc1ccc(C(=O)N(CCCN)[C@@H](c2nc3cc(Cl)ccc3c(=O)n2Cc2ccccc2)C(C)C)cc1 [Ispinesib] + O=C(c1cc(Cc2n[nH]c(=O)c3ccccc23)ccc1F)N1CCN(C(=O)C2CC2)CC1 [Olaparib] (partner 8 µM)
Summary of the method: as §1

| Cell Line | relative viability (Linsitinib + Pictilisib; first compound 0.01 µM) | relative viability (Linsitinib + Pictilisib; first compound 0.03162 µM) | relative viability (Linsitinib + Pictilisib; first compound 0.1 µM) | relative viability (Linsitinib + Pictilisib; first compound 0.3162 µM) | relative viability (Linsitinib + Pictilisib; first compound 1 µM) | relative viability (Ispinesib + Palbociclib; first compound 0.001 µM) | relative viability (Ispinesib + Palbociclib; first compound 0.003162 µM) | relative viability (Ispinesib + Palbociclib; first compound 0.01 µM) | relative viability (Ispinesib + Palbociclib; first compound 0.03162 µM) | relative viability (Ispinesib + Palbociclib; first compound 0.1 µM) | relative viability (Ispinesib + Dasatinib; first compound 0.001 µM) | relative viability (Ispinesib + Dasatinib; first compound 0.003162 µM) | relative viability (Ispinesib + Dasatinib; first compound 0.01 µM) | relative viability (Ispinesib + Dasatinib; first compound 0.03162 µM) | relative viability (Ispinesib + Dasatinib; first compound 0.1 µM) | relative viability (Ispinesib + Olaparib; first compound 0.001 µM) | relative viability (Ispinesib + Olaparib; first compound 0.003162 µM) | relative viability (Ispinesib + Olaparib; first compound 0.01 µM) | relative viability (Ispinesib + Olaparib; first compound 0.03162 µM) | relative viability (Ispinesib + Olaparib; first compound 0.1 µM) |
| --- | --- | --- | --- | --- | --- | --- | --- | --- | --- | --- | --- | --- | --- | --- | --- | --- | --- | --- | --- | --- |
| 201T | 0.706 | 0.703 | 0.688 | 0.616 | 0.534 | 0.378 | 0.407 | 0.361 | 0.409 | 0.345 | 0.538 | 0.599 | 0.735 | 0.56 | 0.307 | 0.859 | 0.905 | 0.958 | 0.822 | 0.79 |
| A549 | 0.514 | 0.442 | 0.344 | 0.242 | 0.273 |  |  |  |  |  |  |  |  |  |  | 0.417 | 0.276 | 0.37 | 0.194 | 0.0705 |
| A-427 | 0.53 | 0.594 | 0.719 |  | 0.688 | 0.53 | 0.538 | 0.55 | 0.322 | 0.282 | 0.668 | 0.793 | 0.817 | 0.396 | 0.161 | 0.714 | 0.784 | 0.728 | 0.696 | 0.22 |
| ABC-1 | 0.883 | 0.572 | 0.696 | 0.434 | 0.498 | 0.578 | 0.665 | 0.765 |  | 0.49 | 0.569 | 0.803 | 0.523 | 0.294 | 0.288 | 1.04 | 0.955 | 0.838 |  | 0.41 |
| BEN | 0.526 | 0.576 | 0.64 | 0.425 | 0.606 | 0.463 | 0.514 | 0.478 | 0.47 | 0.372 | 0.36 | 0.371 | 0.307 | 0.248 | 0.141 | 1.03 | 1.35 | 1.13 | 0.832 | 0.782 |
| CAL-12T | 0.44 | 0.368 | 0.585 | 0.379 | 0.336 | 0.452 | 0.409 | 0.29 | 0.177 | 0.195 | 0.376 | 0.482 | 0.338 | 0.128 | 0.188 | 0.754 | 0.791 | 0.896 | 0.768 | 0.217 |
| COR-L23 | 0.769 | 0.924 | 0.652 | 0.393 | 0.341 | 0.261 | 0.267 | 0.217 | 0.148 | 0.171 | 0.564 | 0.498 | 0.474 | 0.0917 | 0.172 | 0.31 | 0.34 | 0.308 | 0.226 | 0.138 |
| COR-L 105 | 0.454 | 0.434 | 0.387 | 0.301 | 0.25 | 0.439 | 0.39 | 0.369 | 0.362 | 0.305 | 0.462 | 0.303 | 0.31 | 0.195 | 0.238 | 0.578 | 0.667 | 0.579 | 0.411 | 0.51 |
| Calu-6 | 0.878 | 0.805 | 0.916 | 0.748 | 0.716 |  |  |  |  |  |  |  |  |  |  | 0.56 |  | 0.422 | 0.193 | 0.192 |
| ChaGo-K-1 | 0.809 | 0.665 | 0.576 | 0.317 | 0.666 | 0.8 | 1.01 | 1.11 | 0.985 | 0.845 | 0.584 | 0.605 | 0.643 | 0.668 | 0.226 | 0.399 | 0.449 | 0.431 | 0.445 | 0.382 |
| EBC-1 | 0.499 | 0.347 | 0.381 | 0.299 | 0.246 |  |  |  |  |  |  |  |  |  |  | 0.772 | 0.725 | 0.792 | 0.669 | 0.171 |
| EKVX | 0.464 | 0.39 | 0.43 | 0.502 | 0.375 | 0.456 |  | 0.409 | 0.463 | 0.295 | 0.601 | 0.59 | 0.429 | 0.605 | 0.439 | 0.83 |  | 1.05 | 0.831 | 0.317 |
| EMC-BAC-2 | 0.47 | 0.489 | 0.496 | 0.455 | 0.412 | 0.509 | 0.556 | 0.506 | 0.432 | 0.431 | 0.354 | 0.236 | 0.351 | 0.257 | 0.19 | 0.479 | 0.474 | 0.513 | 0.418 | 0.325 |
| EPLC-272H | 0.339 | 0.306 | 0.286 |  | 0.23 | 0.341 | 0.306 | 0.329 | 0.328 | 0.149 | 0.407 | 0.354 | 0.32 | 0.172 | 0.182 | 0.776 | 0.781 | 0.769 | 0.308 | 0.155 |
| H3255 | 0.571 | 0.52 | 0.566 | 0.468 | 0.45 | 0.309 | 0.339 | 0.347 | 0.294 | 0.291 | 0.316 | 0.419 | 0.357 | 0.307 | 0.244 | 0.589 | 0.597 | 0.541 | 0.46 | 0.394 |
| HARA | 0.399 | 0.373 | 0.248 | 0.369 | 0.166 | 0.299 | 0.262 | 0.284 | 0.256 | 0.225 | 0.26 | 0.258 | 0.301 | 0.293 | 0.0741 | 1.03 | 0.83 | 0.592 | 0.707 | 0.316 |
| HCC-15 | 0.743 | 0.703 | 0.824 | 0.234 | 0.583 | 0.518 | 0.847 | 0.899 | 0.644 | 0.418 | 0.711 | 0.662 | 0.604 | 0.371 | 0.21 | 0.683 | 0.759 | 0.917 | 0.831 | 0.445 |
| HCC-44 | 0.579 | 0.634 | 0.66 | 0.317 | 0.311 | 0.996 | 0.985 | 0.978 | 0.999 | 0.948 |  |  |  |  |  | 0.984 | 0.993 | 1.03 | 1.06 | 0.938 |
